Source: PubChem BioAssay AID1963833 (Molecular Pharmacology Branch, DTP, NCI, 2024)

System: 883617-216-R-J1-PDC complex spheroid viability
Experiment: Anticancer human tumor 883617-216-R-J1-PDC patient-derived bladder carcinoma cell line growth inhibition [POLQ]
Details: for IC50: curve of first compound; for viability, T/C: stronger effect = lower value
Protocol: Multicellular complex tumor spheroid response to Polymerase (POL) inhibitors (novobiocin, ART-558, RP6685) in combination with a variety of drugs and investigational agents in selected tumor cell lines
The POL inhibitors (novobiocin, ART-558, and RP6685) were evaluated both individually and in combination with standard of care and investigational anticancer small molecules within a complex spheroid model of solid tumors. . Complex spheroids include a stromal component modeled by human endothelial cells (HUVEC) and fibroblasts modeled by human mesenchymal stem cells (MSCs). The concentration ranges selected for each drug and investigational agent were based upon clinically achievable concentrations if the clinical Cmax of the agent was known.
Compounds. The drugs and investigational agents: novobiocin (NSC847541), ART-558 (NSC835418), RP-6685 (NSC848927), peposertib (NSC802822), ceralasertib (NSC780249), elimusertib (NSC800525), camonsertib (NSC841442), AZD-1390 (NSC803789), olaparib (NSC753686), talazoparib (NSC767125), rucaparib (NSC756644), sotorasib (NSC818433), MRTX-1133 (NSC836407), SN-38 (NSC673596), topotecan (NSC609699), epotoside (NSC141540), doxorubicin (NSC123127), gemcitabine (NSC613327), 5-fluorouracil (NSC19893), paclitaxel (NSC125973), vemurafenib (NSC761431), MSA-2 (NSC828583), SN-011 (NSC837082), adavosertib (NSC754352), prexasertib (NSC758257), carboplatin (NSC241240) and oxaliplatin (NSC266046), were obtained from the National Cancer Institute (NCI) Developmental Therapeutics Program Chemical Repository (21). The FDA-approved anticancer drug set is available from the Developmental Therapeutics Program at https://dtp.cancer.gov/organization/dscb/obtaining/. […] The stock solutions were prepared in dimethyl sulfoxide (DMSO, Sigma-Aldrich, St. Louis, MO, cat. D2650), except for the platinum compounds which were prepared in saline (Quality Biological, Gaithersburg, MD, cat. 114-055-101), at 800-fold the tested concentration and stored at -70 degrees C prior to their use. All drugs and investigational agents were tested over a range starting from a high concentration at or near the clinical Cmax and decreasing in half-log increments. If the clinical Cmax for an agent had not been determined, the highest concentration tested was 10 microM, except for SN-38, which was tested at a high concentration of 1 microM.
Cell Culture. All cells were maintained in an incubator at 37 degrees C and 5% CO2 with 95% humidity. The PDC lines were cultured according to standard operating procedures established by the NCI PDMR (https://pdmr.cancer.gov). Table 3 of the manuscript, lists the cell lines along with the number of the three cell types plated to form the mct-spheroids and media for tumor cell growth. After thawing, all PDC lines, except 997537-175-T-J1-PDC and 415267-285-R-J2-PDC, were cultured in Matrigel-coated flasks prepared with a working solution of 1X Ham's F-12 nutrient mix, without supplementation (Thermo Fisher Scientific, cat. 11765054), 100 U/mL penicillin-streptomycin (Thermo Fisher Scientific, cat. 15140122), and 2.5% Matrigel (Corning Inc., Corning, NY, cat. 354248) for the first three passages. The two PDC lines 997537-175-T-J1-PDC and 415267-285-R-J2-PDC were cultured on uncoated flasks. The 857933-349-R-J2-PDC line was cultured in 6C/Colon 1B media containing advanced DMEM/F-12 (Thermo Fisher Scientific, cat. 12634028), 10 mM HEPES (Thermo Fisher Scientific, cat. 15630080), 1X GlutaMAX supplement (Thermo Fisher Scientific, cat. 35050061), 0.1 mg/mL primocin (InvivoGen, San Diego, CA, cat. ant-pm-2), 10% defined fetal bovine serum, heat inactivated (HyClone Laboratories Inc., Logan, UT, cat. SH30070.03HI), 50% L-WRN conditioned media (ATCC, cat. CRL-3276), 1.25 mM N-Acetyl-L-cysteine (Sigma-Aldrich, cat. A9165), 10 mM nicotinamide (Sigma-Aldrich, cat. N0636), 1X B-27 supplement (Thermo Fisher Scientific, cat. 17504044), 1X N-2 supplement (Thermo Fisher Scientific, cat. […]

[1] = second compound 0.0316 µM, first compound 0.0316 µM
[2] = second compound 0.0316 µM, first compound 0.1 µM
[3] = second compound 0.0316 µM, first compound 0.316 µM
[4] = second compound 0.0316 µM, first compound 1 µM
[5] = second compound 0.0316 µM, first compound 3.16 µM
[6] = second compound 0.0316 µM, first compound 10 µM
[7] = second compound 0.1 µM, first compound 0.0316 µM
[8] = second compound 0.1 µM, first compound 0.1 µM
[9] = second compound 0.1 µM, first compound 0.316 µM
[10] = second compound 0.1 µM, first compound 1 µM
[11] = second compound 0.1 µM, first compound 3.16 µM
[12] = second compound 0.1 µM, first compound 10 µM
[13] = second compound 0.316 µM, first compound 0.0316 µM
[14] = second compound 0.316 µM, first compound 0.1 µM
[15] = second compound 0.316 µM, first compound 0.316 µM
[16] = second compound 0.316 µM, first compound 1 µM
[17] = second compound 0.316 µM, first compound 3.16 µM
[18] = second compound 0.316 µM, first compound 10 µM
[19] = second compound 1 µM, first compound 0.0316 µM
[20] = second compound 1 µM, first compound 0.1 µM
[21] = second compound 1 µM, first compound 0.316 µM
[22] = second compound 1 µM, first compound 1 µM
[23] = second compound 1 µM, first compound 3.16 µM
[24] = second compound 1 µM, first compound 10 µM
[25] = second compound 3.16 µM, first compound 0.0316 µM
[26] = second compound 3.16 µM, first compound 0.1 µM
[27] = second compound 3.16 µM, first compound 0.316 µM
[28] = second compound 3.16 µM, first compound 1 µM
[29] = second compound 3.16 µM, first compound 3.16 µM
[30] = second compound 3.16 µM, first compound 10 µM
[31] = second compound 10 µM, first compound 0.0316 µM
[32] = second compound 10 µM, first compound 0.1 µM
[33] = second compound 10 µM, first compound 0.316 µM
[34] = second compound 10 µM, first compound 1 µM
[35] = second compound 10 µM, first compound 3.16 µM
[36] = second compound 10 µM, first compound 10 µM
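Note: spheroids exposed to compounds for seven days before readout.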
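Throughout, for viability, T/C: 100% = DMSO vehicle control viability.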

**Q.** Which results are given for Nc1ccn(C2OC(CO)C(O)C2(F)F)c(=O)n1 (centres undefined) + Cc1cccc(N(C)C(=O)C2C(O)CCN2c2nc(C)cc(C(F)(F)F)c2C#N)c1?
**A.** IC50 (second compound 0.0316 µM): < 31.6 nM; IC50 (second compound 0.1 µM): < 31.6 nM; IC50 (second compound 0.316 µM): < 31.6 nM; IC50 (second compound 1 µM): < 31.6 nM; IC50 (second compound 3.16 µM): < 31.6 nM; IC50 (second compound 10 µM): < 31.6 nM; viability, T/C [1]: 35.8%; viability, T/C [2]: 33.2%; viability, T/C [3]: 41.2%; viability, T/C [4]: 41.4%; viability, T/C [5]: 33.5%; viability, T/C [6]: 31.1%; viability, T/C [7]: 28%; viability, T/C [8]: 45.6%; viability, T/C [9]: 31.8%; viability, T/C [10]: 38.2%; viability, T/C [11]: 36.9%; viability, T/C [12]: 24.6%; viability, T/C [13]: 30.1%; viability, T/C [14]: 31.9%; viability, T/C [15]: 34%; viability, T/C [16]: 38.5%; viability, T/C [17]: 31.6%; viability, T/C [18]: 35.5%; viability, T/C [19]: 32.5%; viability, T/C [20]: 27.6%; viability, T/C [21]: 33.8%; viability, T/C [22]: 36.5%; viability, T/C [23]: 39.3%; viability, T/C [24]: 34.7%; viability, T/C [25]: 35%; viability, T/C [26]: 28.4%; viability, T/C [27]: 41.2%; viability, T/C [28]: 39.8%; viability, T/C [29]: 40.9%; viability, T/C [30]: 27.4%; viability, T/C [31]: 37.9%; viability, T/C [32]: 35.5%; viability, T/C [33]: 39.2%; viability, T/C [34]: 39.2%; viability, T/C [35]: 39.1%; viability, T/C [36]: 31.7%

**Q.** What does the source list for CC1COCCN1c1cc(C2(S(C)(=N)=O)CC2)nc(-c2ccnc3[nH]ccc23)n1 (centres undefined) + Cc1cccc(N(C)C(=O)C2C(O)CCN2c2nc(C)cc(C(F)(F)F)c2C#N)c1?
**A.** IC50 (second compound 0.0316 µM): 3300 nM; IC50 (second compound 0.1 µM): 2860 nM; IC50 (second compound 0.316 µM): 2750 nM; IC50 (second compound 1 µM): 2760 nM; IC50 (second compound 3.16 µM): 2870 nM; IC50 (second compound 10 µM): 6000 nM; viability, T/C [1]: 97.7%; viability, T/C [2]: 91.2%; viability, T/C [3]: 92.8%; viability, T/C [4]: 77.5%; viability, T/C [5]: 50.9%; viability, T/C [6]: 30.8%; viability, T/C [7]: 102%; viability, T/C [8]: 89.9%; viability, T/C [9]: 87.7%; viability, T/C [10]: 65.2%; viability, T/C [11]: 48.6%; viability, T/C [12]: 36.1%; viability, T/C [13]: 88.2%; viability, T/C [14]: 96.4%; viability, T/C [15]: 94.7%; viability, T/C [16]: 77.8%; viability, T/C [17]: 46.6%; viability, T/C [18]: 38.6%; viability, T/C [19]: 108%; viability, T/C [20]: 93.5%; viability, T/C [21]: 84.3%; viability, T/C [22]: 68.4%; viability, T/C [23]: 43.9%; viability, T/C [24]: 37.2%; viability, T/C [25]: 105%; viability, T/C [26]: 94.1%; viability, T/C [27]: 93.1%; viability, T/C [28]: 65.8%; viability, T/C [29]: 50%; viability, T/C [30]: 38%; viability, T/C [31]: 119%; viability, T/C [32]: 91.4%; viability, T/C [33]: 112%; viability, T/C [34]: 74.4%; viability, T/C [35]: 67.6%; viability, T/C [36]: 37.8%
